From article PMC4264453 (British Journal of Cancer, 2014)
Where a name gives a salt, the structure may show the parent alone.

Experiments:
[1] = system: patients with advanced solid tumours; format: in vivo, human; conditions: days 1, 8 with cisplatin 75 mg m^−2 day 1, 21-day cycle
[2] = Eribulin plasma pharmacokinetics; format: in vivo, human; conditions: for AUC(0-inf) / clearance / Cmax / half-life / Vd: human, plasma, intravenous; for AUC(0-inf): AUC0-inf; for clearance: CL; for Vd: Vss
patients = conditions: ref Synold et al, 2005, cited from earlier work
[3] = system: patients with advanced solid malignancies; conditions: ref Goel et al, 2009; cited from earlier work
[4] = system: patients with advanced solid tumours; conditions: 4 mg m^−2 cohort; ref Tan et al, 2009; cited from earlier work
[5] = no reference given; cited from earlier work
[6] = 60 mg, Dose level 3: eribulin mesylate 1.2 with cisplatin 60 mg m^−2, first dose, N=4, mean (s.d.)
[7] = 60 mg, Dose level 5: eribulin mesylate 1.4 with cisplatin 60 mg m^−2, first dose, N=6, mean (s.d.)
[8] = 75 mg, Dose level 6: eribulin mesylate 1.2 with cisplatin 75 mg m^−2, first dose, N=3, mean (s.d.)

For C=C1C[C@@H]2CC[C@@]34C[C@H]5O[C@H]6[C@@H](O3)[C@H]3O[C@H](CC[C@@H]3O[C@H]6[C@H]5O4)CC(=O)C[C@@H]3[C@@H](OC)[C@@H](C[C@H](O)CN)O[C@H]3C[C@H]3O[C@@H](CC[C@@H]1O2)C[C@@H](C)C3=C [Eribulin mesylate], the “MTD and recommended phase II dose of eribulin mesylate in combination with cisplatin” value [1] was 1.2 mg m^−2, the “effect of cisplatin co-administration on the disposition of eribulin mesylate” value ([2]; compared to previously reported single agent data (Goel et al, 2009; Tan et al, 2009)) was “no apparent effect” and the “dose proportionality of mean Cmax and AUC0-inf” value ([2]; eribulin 1.2–1.4 mg m^−2 with cisplatin) was “did not increase in a dose-proportional manner”. The AUC(0-inf) [2, 6] was 1500 ng·h/mL, the AUC(0-inf) [2, 7] was 1100 ng·h/mL and the clearance [2, 6] was 26.7 mL/min. For the same compound, the clearance [2, 7] was 38.3 mL/min, the Cmax [2, 6] was 466 ng/mL and the Cmax [2, 7] was 508 ng/mL. For the same compound, the half-life ([2]; 60 mg, T1/2, Dose level 3: eribulin mesylate 1.2 with cisplatin 60 mg m^−2, first dose, N=4, mean (s.d.)) was 40.8 h, the half-life ([2]; 60 mg, T1/2, Dose level 5: eribulin mesylate 1.4 with cisplatin 60 mg m^−2, first dose, N=6, mean (s.d.)) was 36.5 h and the Vd [2, 6] was 51.4 L. For the same compound, the Vd [2, 7] was 77.7 L, the AUC(0-inf) [2, 8] was 1030 ng·h/mL and the clearance [2, 8] was 36.7 mL/min. The Cmax [2, 8] was 695 ng/mL, the half-life ([2]; 75 mg, T1/2, Dose level 6: eribulin mesylate 1.2 with cisplatin 75 mg m^−2, first dose, N=3, mean (s.d.)) was 35.5 h and the Vd [2, 8] was 68.4 L. The minor responses (patients; lung, breast, and thyroid) was “three”, the “median duration of stable disease” value (patients; range 2–14 months) was 4 months and the “patients exhibiting stable disease as the best response” value (patients) was 12 patients. The “dose at which grade 3 toxicity first occurred” value (patients; single agent) was 0.5 mg m^−2, the “principal DLT” value [3] was “neutropenia” and the “patients experiencing febrile neutropenia (dominant DLT)” value [4] was “all three patients”. For the same compound, the “administered dose recovered in urine” value [5] was less than 8%.
